Results on one compound are retold here after PMC2919811 (Analytical biochemistry, 2010).

Several values for one entry are separate records, joined by “and”; a condition that tells them apart may be missing. Identical values can stand only once.

One data set deals with T1, OAT1 (Homo sapiens, UniProt Q4U2R8).
T1 sequence (Q4U2R8 1-563): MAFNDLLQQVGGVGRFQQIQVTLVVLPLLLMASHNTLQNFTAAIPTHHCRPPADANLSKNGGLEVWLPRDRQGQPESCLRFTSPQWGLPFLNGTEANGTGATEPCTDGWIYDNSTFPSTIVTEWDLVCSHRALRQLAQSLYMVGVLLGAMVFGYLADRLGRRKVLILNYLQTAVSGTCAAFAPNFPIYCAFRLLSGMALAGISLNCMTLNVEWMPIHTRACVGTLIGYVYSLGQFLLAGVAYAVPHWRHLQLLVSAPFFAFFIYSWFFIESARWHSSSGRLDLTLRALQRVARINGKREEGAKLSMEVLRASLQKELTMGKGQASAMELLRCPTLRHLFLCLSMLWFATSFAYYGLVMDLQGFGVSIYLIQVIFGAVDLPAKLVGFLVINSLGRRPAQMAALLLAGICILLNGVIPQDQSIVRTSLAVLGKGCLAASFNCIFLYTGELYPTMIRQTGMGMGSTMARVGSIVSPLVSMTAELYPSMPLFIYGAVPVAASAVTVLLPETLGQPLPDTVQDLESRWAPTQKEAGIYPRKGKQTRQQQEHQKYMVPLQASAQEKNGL
Kind of data set: Cellular accumulation in CHO cells transiently transfected with OAT1. The following applies: 10 μM 8-FcA, 20 minutes. Format: cell-based.

Data set [1] addresses T2, OATP2B1 (Homo sapiens, UniProt O94956).
T2 sequence (O94956 1-709): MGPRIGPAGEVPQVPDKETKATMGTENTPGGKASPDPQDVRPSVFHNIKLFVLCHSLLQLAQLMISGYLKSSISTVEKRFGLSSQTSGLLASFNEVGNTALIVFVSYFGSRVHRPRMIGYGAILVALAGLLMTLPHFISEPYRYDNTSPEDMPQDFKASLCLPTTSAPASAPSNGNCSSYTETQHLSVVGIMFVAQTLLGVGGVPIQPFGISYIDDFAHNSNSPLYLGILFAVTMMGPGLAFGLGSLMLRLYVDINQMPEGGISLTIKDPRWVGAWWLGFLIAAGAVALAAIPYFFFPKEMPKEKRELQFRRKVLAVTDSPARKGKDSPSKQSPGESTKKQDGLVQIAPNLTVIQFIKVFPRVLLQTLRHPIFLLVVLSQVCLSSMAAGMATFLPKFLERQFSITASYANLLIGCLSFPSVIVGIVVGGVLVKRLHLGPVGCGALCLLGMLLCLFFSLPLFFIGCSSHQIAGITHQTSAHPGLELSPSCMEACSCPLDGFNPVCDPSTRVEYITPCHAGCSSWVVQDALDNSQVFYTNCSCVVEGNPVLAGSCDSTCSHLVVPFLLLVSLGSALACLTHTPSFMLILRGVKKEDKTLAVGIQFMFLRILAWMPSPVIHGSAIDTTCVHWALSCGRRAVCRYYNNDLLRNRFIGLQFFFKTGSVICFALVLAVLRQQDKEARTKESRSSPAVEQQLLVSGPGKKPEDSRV
In words: Cellular accumulation in CHO cells transiently transfected with OATP2B1. It counts as cell-based. The following applies: 10 μM 8-FcA, 20 minutes.

The next data set addresses T3, NTCP (Homo sapiens, UniProt Q14973).
T3 sequence (Q14973 1-349): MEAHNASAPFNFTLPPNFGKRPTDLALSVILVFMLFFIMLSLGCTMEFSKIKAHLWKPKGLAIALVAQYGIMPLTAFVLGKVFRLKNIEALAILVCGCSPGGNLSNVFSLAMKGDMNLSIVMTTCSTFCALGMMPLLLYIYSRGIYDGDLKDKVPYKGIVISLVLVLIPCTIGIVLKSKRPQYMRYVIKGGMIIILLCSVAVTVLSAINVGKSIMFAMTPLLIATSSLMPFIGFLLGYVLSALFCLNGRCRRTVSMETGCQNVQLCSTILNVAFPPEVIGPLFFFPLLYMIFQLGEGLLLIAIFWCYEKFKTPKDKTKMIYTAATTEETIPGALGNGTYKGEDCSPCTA
Kind of data set: Cellular accumulation in CHO cells transiently transfected with NTCP. It counts as cell-based. The following applies: 10 μM 8-FcA, 20 minutes.

For data set [2], the target named is T4, OATP1B3 (Homo sapiens, UniProt Q9NPD5).
T4 sequence (Q9NPD5 1-702): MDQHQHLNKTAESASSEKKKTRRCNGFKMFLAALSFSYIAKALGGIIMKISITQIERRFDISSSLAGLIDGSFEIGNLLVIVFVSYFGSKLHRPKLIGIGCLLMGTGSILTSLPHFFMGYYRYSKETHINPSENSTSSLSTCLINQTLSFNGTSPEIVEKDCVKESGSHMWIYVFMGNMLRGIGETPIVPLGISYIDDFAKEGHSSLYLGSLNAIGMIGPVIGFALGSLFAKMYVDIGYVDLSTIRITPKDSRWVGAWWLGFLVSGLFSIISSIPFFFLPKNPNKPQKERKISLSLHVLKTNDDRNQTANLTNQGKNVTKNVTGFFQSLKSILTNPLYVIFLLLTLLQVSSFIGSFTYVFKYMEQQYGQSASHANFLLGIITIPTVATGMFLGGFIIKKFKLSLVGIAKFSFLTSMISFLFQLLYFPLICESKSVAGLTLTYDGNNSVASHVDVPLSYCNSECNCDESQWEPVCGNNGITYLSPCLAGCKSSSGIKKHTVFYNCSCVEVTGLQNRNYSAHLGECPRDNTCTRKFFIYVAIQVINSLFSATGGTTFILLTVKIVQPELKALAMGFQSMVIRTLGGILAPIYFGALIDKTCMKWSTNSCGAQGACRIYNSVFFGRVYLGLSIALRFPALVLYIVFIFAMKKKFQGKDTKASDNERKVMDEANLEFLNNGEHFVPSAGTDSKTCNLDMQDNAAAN
In words: Substrate uptake and transport kinetics in CHO cells stably expressing OATP1B3.

In data set [3] the target is T2, OATP2B1. Kind of data set: Substrate uptake in CHO cells stably expressing OATP2B1. Format: cell-based. The conditions noted are these: 2 μM substrate, five minute accumulation, CHOvector = 1.
Data set [4] addresses T5, OATP1B1 (Homo sapiens, UniProt Q9Y6L6). Kind of data set: Substrate uptake and transport kinetics in CHO cells stably expressing OATP1B1.
Data set [5] deals with T4, OATP1B3. In words: Cellular accumulation in CHO cells transiently transfected with OATP1B3. The conditions noted are these: 10 μM 8-FcA, 20 minutes.
The conditions of data set [6]: stated in the introduction without data or own reference; cited from earlier work.
Data set [7] deals with T5, OATP1B1. The following applies: 10 μM 8-FcA, 20 minutes.
[8] abbreviates: 2 μM substrate, five minute accumulation, CHOvector = 1.
The mark [9] stands for this setting: 8-FcA 0.25-25 μM, 10 min uptake, CHOvector subtracted, mean ± standard error.

T5 sequence (Q9Y6L6 whole entry): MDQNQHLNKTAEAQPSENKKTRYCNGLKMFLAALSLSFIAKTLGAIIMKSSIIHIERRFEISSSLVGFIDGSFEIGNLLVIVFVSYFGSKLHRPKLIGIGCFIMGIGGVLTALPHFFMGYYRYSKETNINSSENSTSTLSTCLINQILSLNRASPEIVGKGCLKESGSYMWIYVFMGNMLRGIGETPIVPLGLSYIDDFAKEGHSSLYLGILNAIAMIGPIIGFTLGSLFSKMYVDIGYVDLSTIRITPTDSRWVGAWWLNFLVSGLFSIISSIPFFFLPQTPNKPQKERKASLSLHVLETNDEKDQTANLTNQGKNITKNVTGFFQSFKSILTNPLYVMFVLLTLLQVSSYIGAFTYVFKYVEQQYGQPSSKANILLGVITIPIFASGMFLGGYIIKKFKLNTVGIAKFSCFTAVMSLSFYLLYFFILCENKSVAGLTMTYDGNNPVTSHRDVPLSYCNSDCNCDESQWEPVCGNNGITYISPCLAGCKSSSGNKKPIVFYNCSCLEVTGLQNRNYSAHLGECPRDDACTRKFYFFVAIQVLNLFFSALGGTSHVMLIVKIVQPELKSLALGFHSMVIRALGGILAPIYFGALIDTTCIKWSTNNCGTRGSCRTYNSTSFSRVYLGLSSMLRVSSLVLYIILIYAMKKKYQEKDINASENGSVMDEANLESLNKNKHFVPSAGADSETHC

Take `Nc1ncnc2c1nc(SCCNC(=S)Nc1ccc(-c3c4ccc(=O)cc-4oc4cc(O)ccc34)c(C(=O)O)c1)n2[C@@H]1O[C@@H]2COP(=O)(O)O[C@H]2[C@H]1O` [8-FcA, 8-(2-[Fluoresceinyl]aminoethylthio) adenosine-3', 5'-cyclic monophosphate]: the “cellular accumulation by fluorescence microscopy, OAT1” value on OAT1 is “modest accumulation”. Also, the “cellular accumulation by fluorescence microscopy, OATP2B1” value on OATP2B1 [1] is given as “negative”. Besides, at NTCP, the “cellular accumulation by fluorescence microscopy, NTCP” value is “negative”. Further, at OATP1B3 [2], the “transport efficiency, Vmax/Km (OATP1B3)” value is 0.183 μL/min/cm^2. Further, at OATP1B3 [2] (setting [8]), the “cellular accumulation relative to control, CHOOATP1B3” value is recorded as “robust accumulation”. Further, the “Vmax of OATP1B3-mediated transport” value at OATP1B3 [2] (setting [9]) is 0.33 pmol/min/cm^2 and 0.33±0.02 pmol/min/cm^2. The “cellular accumulation relative to control, CHOOATP2B1” value on OATP2B1 [3] is reported as “not statistically different from that of CHOvector”. In addition, at OATP1B1 [4], the “transport efficiency, Vmax/Km (OATP1B1)” value amounted to 0.069 μL/min/cm^2. Also, the “cellular accumulation relative to control, CHOOATP1B1” value at OATP1B1 [4] (setting [8]) is “robust accumulation”. In addition, the “Vmax of OATP1B1-mediated transport” value on OATP1B1 [4] (setting [9]) is 0.20 pmol/min/cm^2 and 0.20±0.01 pmol/min/cm^2. Moreover, the “cellular accumulation by fluorescence microscopy, OATP1B3” value at OATP1B3 [5] is “readily accumulated”. Also, the aqueous solubility entry in [6] is given as “very high aqueous solubility”. The “cellular accumulation by fluorescence microscopy, OATP1B1” value on OATP1B1 [7] was “readily accumulated”.
